In PMC10046961, “High-Throughput Screening Assay for Detecting Drug-Induced Changes in Synchronized Neuronal Oscillations and Potential Seizure Risk Based on Ca^2+ Fluorescence Measurements in Human Induced Pluripotent Stem Cell (hiPSC)-Derived Neuronal 2D and 3D Cultures” (Cells, 2023):
Read-outs that look alike come from different tables or passages of the source.

Assays:
[1] = test system: hiPSC-derived neurons co-cultured with human primary astrocytes in 2D; assay: Ca2+ transient oscillation assay (FDSS), 2D co-culture; type: cell-based; details: for activation at 0.37 µM / activation at 1.11 µM / activation at 3.33 µM / activation at 10 µM: Homo sapiens, 1 h, 60 min
Summary of the method: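 hiPSC-derived excitatory neurons (CW50065, Quick-Neuron EX-SeV) co-cultured with human primary astrocytes at 4:1 (10,000:2500 cells per well). Cal-520-loaded cells in HBSS with 2 mM CaCl2 and 10 mM HEPES were pretreated with 0.04% DMSO.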

[2] = test system: hiPSC-derived neurons co-cultured with human primary astrocytes in 3D; assay: Ca2+ transient oscillation assay (FDSS), 3D spheroids; type: cell-based; details: 60 min
Summary of the method: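 Fura-2 fluorescence was read twice for 20 min each: a baseline 10 min after 0.04% DMSO, and again 60 min after compound addition at nominal final concentration. The 3D co-cultures (1:1 hiPSC neurons from a donor and human astrocytes, 8000 each) matured 5 weeks in BrainPhys medium after a 1-week differentiation.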

[3] = test system: kainic-acid-induced seizures; details: cited from earlier work
[4] = cited from earlier work
[5] = humans; cited from earlier work
[6] = ref PharmaPendium, cited from earlier work
[7] = read-out: Area under the curve - 2D Mean
[8] = read-out: Peak amplitude - 2D Mean
[9] = read-out: Peak-to-peak interval - 2D Mean

CC(NC(C)(C)C)C(=O)c1cccc(Cl)c1 (centres unmarked) [Bupropion]
activation at 0.37 µM [1, 7]: 14.5%
activation at 0.37 µM ([1]; read-out: Peak Number—2D Mean): 12.7%
activation at 0.37 µM [1, 8]: 2.7%
activation at 0.37 µM ([1]; read-out: Peak width - 2D Mean): 12.8%
activation at 0.37 µM [1, 9]: -5.5%
activation at 1.11 µM [1, 7]: 26.6%
activation at 1.11 µM ([1]; read-out: Peak Number—2D Mean): 6.6%
activation at 1.11 µM [1, 8]: 5.4%
activation at 1.11 µM ([1]; read-out: Peak width - 2D Mean): 26.6%
activation at 1.11 µM [1, 9]: 3.4%
activation at 3.33 µM [1, 7]: 25.5%
activation at 3.33 µM ([1]; read-out: Peak Number—2D Mean): -12%
activation at 3.33 µM [1, 8]: 3.7%
activation at 3.33 µM ([1]; read-out: Peak width - 2D Mean): 29.2%
activation at 3.33 µM [1, 9]: 19.7%
activation at 10 µM [1, 7]: 39.3%
activation at 10 µM ([1]; read-out: Peak Number—2D Mean): 6%
activation at 10 µM [1, 8]: 4.7%
activation at 10 µM ([1]; read-out: Peak width - 2D Mean): 46.5%
activation at 10 µM [1, 9]: 41.8%
Area under the curve - 3D Mean ([2]; 0.37 µM): 137.5 % change from baseline
Peak Number—3D Mean ([2]; 0.37 µM): 1.3 % change from baseline
Peak amplitude - 3D Mean ([2]; 0.37 µM): 126.7 % change from baseline
Peak width - 3D Mean ([2]; 0.37 µM): 0.0 % change from baseline
Peak-to-peak interval - 3D Mean ([2]; 0.37 µM): 4.1 % change from baseline
Area under the curve - 3D Mean ([2]; 1.11 µM): 159.9 % change from baseline
Peak Number—3D Mean ([2]; 1.11 µM): −8.4 % change from baseline
Peak amplitude - 3D Mean ([2]; 1.11 µM): 134.2 % change from baseline
Peak width - 3D Mean ([2]; 1.11 µM): 9.4 % change from baseline
Peak-to-peak interval - 3D Mean ([2]; 1.11 µM): 15.3 % change from baseline
Area under the curve - 3D Mean ([2]; 3.33 µM): 154.1 % change from baseline
Peak Number—3D Mean ([2]; 3.33 µM): −2.2 % change from baseline
Peak amplitude - 3D Mean ([2]; 3.33 µM): 128.1 % change from baseline
Peak width - 3D Mean ([2]; 3.33 µM): 9.0 % change from baseline
Peak-to-peak interval - 3D Mean ([2]; 3.33 µM): 7.8 % change from baseline
Area under the curve - 3D Mean ([2]; 10 µM): 119.7 % change from baseline
Peak Number—3D Mean ([2]; 10 µM): 12.5 % change from baseline
Peak amplitude - 3D Mean ([2]; 10 µM): 118.0 % change from baseline
Peak width - 3D Mean ([2]; 10 µM): −1.4 % change from baseline
Peak-to-peak interval - 3D Mean ([2]; 10 µM): −3.5 % change from baseline
effect on kainic-acid-induced seizures in vitro [3]: attenuate

Cc1ccc(Nc2nccc(N(C)c3ccc4c(C)n(C)nc4c3)n2)cc1S(N)(=O)=O [Pazopanib]
effect on peak number / Ca2+ neuronal oscillations, in words ([1]; 2D format): significantly reduced peak number
activation at 0.37 µM [1, 7]: -1.8%
activation at 0.37 µM ([1]; read-out: Peak Number—2D Mean): -49%
activation at 0.37 µM [1, 8]: -15.8%
activation at 0.37 µM ([1]; read-out: Peak width - 2D Mean): -4.8%
activation at 0.37 µM [1, 9]: 14.6%
activation at 1.11 µM [1, 7]: 7.8%
activation at 1.11 µM ([1]; read-out: Peak Number—2D Mean): 4.4%
activation at 1.11 µM [1, 8]: -3.8%
activation at 1.11 µM ([1]; read-out: Peak width - 2D Mean): 12.6%
activation at 1.11 µM [1, 9]: -2.6%
activation at 3.33 µM [1, 7]: 38.8%
activation at 3.33 µM ([1]; read-out: Peak Number—2D Mean): 11.3%
activation at 3.33 µM [1, 8]: 11.2%
activation at 3.33 µM ([1]; read-out: Peak width - 2D Mean): 27.8%
activation at 3.33 µM [1, 9]: 0.5%
activation at 10 µM [1, 7]: 16.3%
activation at 10 µM ([1]; read-out: Peak Number—2D Mean): 10%
activation at 10 µM [1, 8]: 9.5%
activation at 10 µM ([1]; read-out: Peak width - 2D Mean): 3.7%
activation at 10 µM [1, 9]: 14.2%
Area under the curve - 3D Mean ([2]; 0.37 µM): 125.7 % change from baseline
Peak Number—3D Mean ([2]; 0.37 µM): 6.4 % change from baseline
Peak amplitude - 3D Mean ([2]; 0.37 µM): 101.6 % change from baseline
Peak width - 3D Mean ([2]; 0.37 µM): 9.7 % change from baseline
Peak-to-peak interval - 3D Mean ([2]; 0.37 µM): −2.0 % change from baseline
Area under the curve - 3D Mean ([2]; 1.11 µM): 127.9 % change from baseline
Peak Number—3D Mean ([2]; 1.11 µM): −4.2 % change from baseline
Peak amplitude - 3D Mean ([2]; 1.11 µM): 110.2 % change from baseline
Peak width - 3D Mean ([2]; 1.11 µM): 7.7 % change from baseline
Peak-to-peak interval - 3D Mean ([2]; 1.11 µM): 4.1 % change from baseline
Area under the curve - 3D Mean ([2]; 3.33 µM): 116.3 % change from baseline
Peak Number—3D Mean ([2]; 3.33 µM): 0.8 % change from baseline
Peak amplitude - 3D Mean ([2]; 3.33 µM): 107.5 % change from baseline
Peak width - 3D Mean ([2]; 3.33 µM): 4.1 % change from baseline
Peak-to-peak interval - 3D Mean ([2]; 3.33 µM): −3.0 % change from baseline
Area under the curve - 3D Mean ([2]; 10 µM): 117.4 % change from baseline
Peak Number—3D Mean ([2]; 10 µM): −2.0 % change from baseline
Peak amplitude - 3D Mean ([2]; 10 µM): 101.7 % change from baseline
Peak width - 3D Mean ([2]; 10 µM): 8.7 % change from baseline
Peak-to-peak interval - 3D Mean ([2]; 10 µM): 7.5 % change from baseline
seizure risk in humans [4]: does not have a seizure risk
crossing of the blood–brain barrier [5]: does not cross the blood–brain barrier
Free Cmax ([6]; Table 1, peak plasma concentration in men, free therapeutic Cmax): 600 to 1200 nM
Free Cmax ([6]; Table 2, highest plasma concentration in humans after the therapeutic dose): 600 to 1200 nM
